{"source": "patent US9474749B2", "about": "(priority 2004, dated 2016)", "key": {"[1]": {"test_system": "Immunoproteasome LMP7 (β5i) Subunit", "assay": "LMP7 polypeptide expression (Western blot)", "format": "cell-based, human", "conditions": "36 and 48 hours", "method": "(§1) To determine protein concentrations, protein was harvested using the following buffer: 20 mM Hepes (Sigma), 100 mM NaCl (Fisher), 10 mM NaF (Sigma), 1% Triton X-100 (Sigma), 1 mM sodium orthovanadate (Sigma), 10 mM EDTA (Sigma), pH 7.4, 0.1% protease inhibitor cocktail (Sigma), and ddH2O. Homogenized samples were spun in an ultracentrifuge at 10,000G for 20 minutes at 4° C. Concentration was determined via the Bradford assay (Bio-Rad) using bovine serum albumin (BSA, Sigma) for standard curve. To eliminate any potential pipetting error, samples and standards were read in triplicate.\n(§2) Western blotting was performed as follows. SDS-polyacrylamide gels (12% for separation and 5% for stacking) were made using the Mini Trans-Blot Cell (Bio-Rad). Based on the concentrations from the protein concentration determination assay, the proteins were mixed with 2× Protein Loading Buffer (0.2M DTT) for a final volume of 24 μL. Tris-Glycine Electrophoresis Buffer (1×) was used in SDS-PAGE, and proteins were separated at constant amperage (35 mA).\n(§3) Subsequent protein transfer to a nitrocellulose membrane involved use of the Mini Trans-Blot Cell apparatus run at constant voltage (100V) for 40 minutes. […]\n(§4) Substrate (Pierce) was administered as a means of stimulating chemiluminescence. Blots were developed and subsequently analyzed for relative band intensity using Gel-Pro software (Applied Biosystems)."}, "human saphenous veins": {"test_system": "human saphenous veins", "assay": "NO release from human saphenous veins", "conditions": "2×10^−7 M morphine"}, "[2]": {"test_system": "SK-N-SH neuroblastoma cell line", "assay": "Cellular morphology (Form Factor) of neuroblastoma cells", "format": "cell-based, human", "conditions": "concomitant morphine and IFNγ", "procedure": "Cell viability was determined via Trypan blue exclusion. An inverted light microscope (Nikon) with a phase-contrast filter was used to observe the cells. Pictures of the cells were taken via a digital camera (Optronix) attached to the microscope ocular. Images were uploaded onto ImagePro Plus Software (Applied Biosystems), where cell viability was calculated based on both the number of cells covering the field and the cells that present as dead from the stain. In addition, ImagePro Plus was used for determining cellular morphology. The area and perimeter were found and used in the formula (4π*Area)/(Perimeter)^2, resulting in a value between 0 (a straight line) and 1 (a perfect circle)."}, "pedal ganglia [3]": {"test_system": "pedal ganglia", "assay": "NO release from excised pedal ganglia (NO-selective microprobe)", "format": "cell-based, Mytilus edulis", "method": "For the nitric oxide assay, ten pedal ganglia (per determination) dissected from M. edulis were bathed in 1 mL sterile phosphate buffered saline (PBS). […] For the opiate receptor antagonist experiments, ganglia were pretreated with naloxone for 10 minutes prior to reticuline addition. NO release was monitored with an NO-selective microprobe manufactured by World Precision Instruments (Sarasota, Fla.). The sensor was positioned approximately 100 μm above the respective tissue surface. […] The NO detection system was calibrated daily. The probe was allowed to equilibrate for 10 minutes in the incubation medium free of tissue before being transferred to vials containing the ganglia for another 5 minutes. Manipulation and handling of the ganglia was only performed with glass instruments. Data was acquired using the Apollo-4000 free radical analyzer (World Precision Instruments, Sarasota, Fla.). The experimental values were then transferred to Sigma-Plot and -Stat (Jandel, Calif.) for graphic representation and evaluation."}, "NMDA NR2B Subunit": {"test_system": "NMDA NR2B Subunit", "assay": "NMDA NR2B subunit mRNA expression (RT-PCR)", "format": "cell-based, human", "method": "(§5) Isolation of total RNA was performed via RNA MiniPrep Kit (QIAGEN). Concentration of RNA was determined via GeneQuant II Spectrophotometer (Pharmacia Biotech) by multiplying A260 value with dilution factor and nucleic acid constant (0.04). Agarose gel electrophoresis (1%) was used to check for RNA quality.\n(§6) RT and PCR reactions were performed in GeneAmp PCR System 9700 (Applied Biosystems) using reverse transcriptase and Taq DNA Polymerase. Forward and reverse gene specific-primers for various subunits of the 20S proteasome and immunoproteasome were either obtained from the literature or designed through Primer Express Software 2.0 (Applied Biosystems) (Table 4). NMDA receptor subunit primers were also designed (Table 4). NMDA receptor expression was used as a marker of neurodegenerative disease.\n(§7) All primers were optimized for annealing temperatures and cycles (Table 5). Gel electrophoresis (2% agarose, 0.01% ethidium bromide) was performed and analyzed using a UV transilluminator (UVP) and GelPro Analyzer Software (Applied Biosystems). Relative band intensity was normalized with β-Actin reference gene."}, "immunocytes": {"test_system": "immunocytes", "assay": "LPS activation of hemolymph cells from morphine pre-treated animals", "conditions": "single pre-treatment, morphine 10^−6 M, LPS 1 μg/mL"}, "pedal ganglia [4]": {"test_system": "pedal ganglia", "assay": "NO release after daily morphine injections (tolerance)", "format": "in vivo, Mytilus", "method": "45 Mytilus animals were divided into three groups. […] Two hours post-injection, NO release was measured."}, "BACE-2": {"test_system": "BACE-2", "assay": "BACE-2 mRNA expression in HTB-11 cells (RT-PCR)", "conditions": "morphine, 24 hours", "procedure": "(§9) SH-SY5Y human neuroblastoma cells (ATCC, USA) were cultured in Dulbecco's modified Eagle's medium/Ham's nutrient mixture (DMEM-F12) (Invitrogen, USA), and HTB-11 human neuroblastoma cells (ATCC, USA) were cultured in Minimum Essential Medium Alpha Medium (MEM-α) (Invitrogen, USA). […] All treatments were performed under a sterile hood.\n(§10) After the treatment time-period, cells were harvested, and total RNA was extracted using RNeasy RNA Isolation kit (Qiagen) following the manufacturer's procedures. Total RNA yield was determined using a Spectrophotometer RNA/DNA calculator (Pharmacia Biotech). Total RNA concentration was then standardized for semi-quantitative RT-PCR, which was carried out in a Geneamp Thermocycler PCR System 9700 (P.E. Applied Biosystems). […] PCR products and a 100 bp DNA marker were then loaded in a 2% agarose gel stained with ethidium bromide. Gel electrophoresis was performed using a power-supply (E-C Apparatus Corp.) set at 110V with constant amperage for 1.5 hours. Gels were then photographed using a Gel Documentation System (UVP), and bands analyzed using Gel-Pro Analyzer (MediaCybernetics) on a P4 Windows machine."}, "20S proteasome": {"test_system": "20S proteasome", "assay": "Activity of the whole 20S proteasome (fluorometric)", "format": "cell-based, human", "method": "(§8) Proteasome function assays were performed in an effort to examine the modulation in levels of protein degradation. Fluorometric assays were performed for both the chymotrypsin activity of the 26S proteasome as well as activity of the whole 20S proteasome using procedures adapted from Kotamraju et al. (Proc. Natl. Acad. Sci. USA, 100:10653-8 (2003)). Excitation at 365 nm and emission at 460 nM of the fluorogenic compound, […] (AMC), were measured using a Spectrofluoroscence Detector (McPherson)."}, "[5]": {"test_system": "human immune and vascular tissues", "assay": "NO release from human immune and vascular tissues", "format": "cell-based", "conditions": "morphine 10^−6 M"}, "Ubiquitin": {"test_system": "Ubiquitin", "assay": "Free ubiquitin (Western blot)", "format": "cell-based, human", "method": "as §1, §2, §3, §4"}, "[6]": {"test_system": "20S Proteasome X (β5) Subunit", "assay": "20S proteasome X subunit protein (Western blot)", "format": "cell-based, human", "method": "as §1, §2, §3, §4"}, "NMDA NR1 Subunit": {"test_system": "NMDA NR1 Subunit", "assay": "NMDA NR1 subunit mRNA expression (RT-PCR)", "format": "cell-based, human", "method": "as §5, §6, §7"}, "[7]": {"test_system": "20S Proteasome LMP7 Subunit (β5i)", "assay": "LMP7 immunoproteasome subunit mRNA expression (RT-PCR)", "format": "cell-based, human", "method": "as §5, §6, §7"}, "[8]": {"test_system": "20S Proteasome X Subunit (β5)", "assay": "20S proteasome X subunit mRNA expression (RT-PCR)", "format": "cell-based, human", "conditions": "morphine 5 μM, 24 hours; control 0.716±0.015", "method": "as §5, §6, §7"}, "26S proteasome": {"test_system": "26S proteasome", "assay": "Chymotrypsin activity of the 26S proteasome (fluorometric)", "format": "cell-based, human", "method": "as §8"}, "BACE-1": {"test_system": "BACE-1", "assay": "BACE-1 mRNA expression in HTB-11 cells (RT-PCR)", "conditions": "24 hours", "procedure": "as §9, §10"}, "Mytilus animals": {"test_system": "Mytilus animals", "assay": "TNF-α-induced death of animals", "conditions": "morphine 10^−7 M daily for four days pre-treatment", "procedure": "100 healthy Mytilus animals were treated with 10 U/mL of TNF-α by injection."}, "[9]": {"test_system": "SK-N-SH neuroblastoma cell line", "assay": "NO release from SK-N-SH neuroblastoma cells", "conditions": "morphine sulfate 5 μM; baseline 2 nM NO", "procedure": "The human SK-N-SH neuroblastoma cell line (ATCC #HTB-11) was used as a cellular model. Cells were propagated in Minimum Essential Medium alpha (MEMα) with 10% fetal bovine serum (FBS), 2% penicillin/streptomycin, 1.5 g/L NaHCO3, and 1.0 mM pyruvic acid. A 5% CO2 incubator (NAPCO) at 37° C. was used for maintenance of temperature and pH. […] When needed, cells were plated in 6- or 12-well plates using a hemocytometer (2×10^5 cells/well in 6-well plates or 1×10^5 cells/well in 12-well plates). Experimental manipulations were performed under sterile conditions under a lamina airflow hood after cells had adhered to the bottom of the plates."}}, "note": "Several values for one entry are separate records, joined by “and”; a condition that tells them apart may be missing. Equal values may be shown once. Read-outs that look alike come from different tables or passages of the source.", "data": [{"smiles": "CN1CC[C@]23c4c5ccc(O)c4O[C@H]2[C@@H](O)C=C[C@H]3[C@H]1C5", "note": "[Morphine, morphine]", "values": [{"measurement": "effect on IFNγ-stimulated LMP7 polypeptide expression", "setting": "[1]", "value": "blocked this action"}, {"measurement": "NO released", "setting": "human saphenous veins", "value": "7 ± 2", "unit": "nM"}, {"measurement": "Form Factor (FF)", "setting": "[2]", "value": "0.58±0.01"}, {"measurement": "NO Peak Level", "setting": "pedal ganglia [3]; ligand 10^−7 M", "value": "24.3 ± 3.1", "unit": "nM"}, {"measurement": "NO Peak Time", "setting": "pedal ganglia [3]; ligand 10^−7 M", "value": "0.8 ± 0.2", "unit": "min"}, {"measurement": "duration of ganglionic NO release", "setting": "pedal ganglia [3]; reticuline 10^−7 M, morphine 10^−6 M", "value": 5, "unit": "min"}, {"measurement": "NR2B expression", "setting": "NMDA NR2B Subunit", "value": "1.09±0.06 AU and 1.17±0.04 AU"}, {"measurement": "activation of LPS-treated cells", "setting": "immunocytes", "value": "19.3±3.8", "unit": "%"}, {"measurement": "NO release on day one versus days two, three, and four", "setting": "pedal ganglia [4]; 0.01 μM morphine daily", "value": "level similar"}, {"measurement": "NO release after four days versus day one", "setting": "pedal ganglia [4]; 1 μM morphine daily", "value": "substantially lower"}, {"measurement": "NO release on 10 μM morphine challenge versus one day of 1 μM", "setting": "pedal ganglia [4]; 1 μM morphine for four days", "value": "about half"}, {"measurement": "BACE-2 expression", "setting": "BACE-2", "value": "up regulates the expression of BACE-2"}, {"measurement": "20S proteasome activity", "setting": "20S proteasome", "value": "decrease in 20S proteasomal function"}, {"measurement": "NO release", "setting": "[5]", "value": "26 to 29", "unit": "nM"}, {"measurement": "free ubiquitin", "setting": "Ubiquitin; 1 μM morphine, control 44", "value": 64, "unit": "AU"}, {"measurement": "free ubiquitin", "setting": "Ubiquitin; 5 μM morphine", "value": 125, "unit": "AU"}, {"measurement": "X subunit protein band intensity", "setting": "[6]", "value": "162 AU and 188 AU and 168 AU and 154 AU"}, {"measurement": "NR1 expression", "setting": "NMDA NR1 Subunit", "value": "1.40±0.056", "unit": "AU"}, {"measurement": "LMP7 mRNA expression", "setting": "[7]; 5 μM morphine with rotenone, 24 hours", "value": "0.792±0.001", "unit": "AU"}, {"measurement": "effect on IFNγ-induced LMP7 mRNA", "setting": "[7]; p<0.034", "value": "blocked the LMP7 increase induced by IFNγ"}, {"measurement": "proteasomal X subunit mRNA expression", "setting": "[8]", "value": "0.868±0.007", "unit": "AU"}, {"measurement": "activity of the chymotrypsin functional 26S active site", "setting": "26S proteasome", "value": "277 ± 8.0", "unit": "pM"}, {"measurement": "NO release", "setting": "SH-SY5Y cells; 10^−6 M morphine daily for six days, 10^−6 M on the seventh day", "value": 3.4, "unit": "nM"}, {"measurement": "NO release", "setting": "SH-SY5Y cells; morphine 10^−6 M", "value": "3 to 4", "unit": "nM"}, {"measurement": "down regulation of BACE-1 expression", "setting": "BACE-1; 1 μM morphine", "value": 44, "unit": "%"}, {"measurement": "down regulation of BACE-1 expression", "setting": "BACE-1; 5 μM morphine", "value": 18, "unit": "%"}, {"measurement": "effect on TNF-α-induced death", "setting": "Mytilus animals", "value": "reduced the number of animals that died"}, {"measurement": "peak NO release", "setting": "[9]", "value": 22.3, "unit": "nM"}]}]}
